Results on 1 compound are retold here after patent US7939554B2, “Protein phosphatase inhibitors” (The Cleveland Clinic Foundation, priority 2006, dated 2011).

In one data set the target is T1, recombinant SHP-1 (Homo sapiens, UniProt P29350).
T1 construct: Recombinant protein of SHP-1 PTPase catalytic domain was described
T1 sequence (P29350 244-515 limits assumed): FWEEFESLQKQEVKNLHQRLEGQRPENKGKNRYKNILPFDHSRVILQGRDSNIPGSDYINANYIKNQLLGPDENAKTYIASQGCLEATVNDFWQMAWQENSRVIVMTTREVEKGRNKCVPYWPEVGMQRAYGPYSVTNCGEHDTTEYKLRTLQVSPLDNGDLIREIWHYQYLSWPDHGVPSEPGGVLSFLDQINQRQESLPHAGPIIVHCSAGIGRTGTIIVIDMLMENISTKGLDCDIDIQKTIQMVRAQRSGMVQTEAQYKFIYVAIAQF
The data set is described as follows: rapid in vitro SHP-1 PTPase assay (DIFMUP fluorescence substrate). It counts as biochemical. As to conditions: L5 and analogs, 1 μg/well; FIG. 12A. As to the method:
Recombinant protein of SHP-1 PTPase catalytic domain was described and stored in Tris buffer (25 mM Tris, pH7.5, 1 mM EDTA, 2 μM 2-ME, 25% glycerol) at −80° C. Fluorescence substrate DIFMUP (6,8-difluoro-4 methylumbelliferyl phosphate) was purchased (Molecular Probes). SSG was reported previously (21-23) and stored at 4° C. in darkness prior to use. Human and mouse IFNγ ELISPOT Kit (R & D System), CD4^+ Cell Intracellular IFNγ Detection Kit (BD Bioscience) and CD8^+ Cell Intracellular IFNγ Detection Kit (BD Bioscience) were purchased from commercial sources. Human Jurkat T cell line (26) and murine B16 melanoma cell line (ATCC) were maintained in […] culture medium supplemented with 10% fetal calf serum (FCS). Antibodies against pLck-pY394 (Cell Signaling), pLck-pY505 (Cell Signaling), pZap70 (pY319, BD Biosciences), pSlp76 (pY128, BD Biosciences) and pLat (pY226, BD Biosciences) were purchased from commercial sources.
A rapid SHP-1 PTPase assay was developed for screening the compounds in a commercial library of 34,000 drug-like small chemicals (Chembridge, Mass.). Briefly, compounds of the library (1 μg/well in […]) were placed in 96-well plates (Falcon, 353072) and mixed with recombinant SHP-1 protein (0.1 μg/well) in […] of HEPES buffer (50 mM HEPS, pH 7.5, 150 mM NaCl, 1 mM EDTA, 0.2 mM DTT and 0.1 mg/ml BSA). The plates were incubated at room temperature for 10 minutes prior to the addition of fluorescence substrate DIFMUP (40 μM stock in HEPES buffer, 10 μl/well) to initiate PTPase reaction. Upon completion of PTPase reaction at room temperature for 1 hr in darkness, fluorescence signal of individual wells were recorded using a Vector^2 Multilabel Counter (Vector, CA). They were compared to that of control SHP-1 PTPase reaction (˜10,000 units of fluorescence signal) in the absence of any compound (100%) for calculating relative SHP-1 inhibition induced by the compounds after subtracting the background signal (˜500 units of fluorescence signal) of the substrate.
To evaluate their SHP-1 inhibitory activity, the analogs (1 μg/well in 0.2 μl DMSO) were aliquot individually to 96-well plates (Falcon, 353072) and mixed with recombinant SHP-1 protein (0.1 μg/well) in 90 μl of HEPES buffer (50 mM HEPS, pH 7.5, 150 mM NaCl, 1 mM EDTA, 0.2 mM DTT and 0.1 mg/ml BSA). The plates were incubated at room temperature for 10 minutes prior to the addition of fluorescence substrate DIFMUP (40 μM stock in HEPES buffer, 10 μl/well) to initiate PTPase reaction. Upon completion of PTPase reaction at room temperature for 1 hr in darkness, fluorescence signal of individual wells were recorded using a Vector^2 Multilabel Counter (Vector, CA). […]

A further data set relates to B16 melanoma cells. Put plainly: B16 melanoma cell growth in culture (MTT assay). It counts as cell-based, mouse. Particulars: doses up to 10 μg/ml, 5 days. As to the method: Data represent mean±SD of triplicate samples. […] Tumor volumes were recorded as indicated. C, Athymic nude mice bearing 4-day-established B16 tumors were subjected to differential treatments as in B. Tumor volumes were recorded as indicated.
L5, L6 and L6 analogs (Chembridge), mouse IFNγ ELISPOT Kit (R & D System) and antibody against pLck-pY394 or pERK1/2 (Cell Signaling) were purchased from commercial sources. Human Jurkat T cell line and murine B16 melanoma cell line (ATCC) and other cancer cell lines were maintained in […] culture medium supplemented with 10% fetal calf serum (FCS). The effects of chemical compounds on cancer cell growth in culture were quantified by MTT assays following our established procedures.
(In general: Tetrazolium assays rely on reduction of a dye to a coloured formazan, in cell work by metabolically active cells.)

A short description of data set [1]: toxicity in mice (viability). As to conditions: 10 mg/kg, daily, s.c., two weeks. It counts as in vivo, mouse. As to the method:
FIG. 3 illustrates differential toxicity of L5 and L6. Jurkat cells were cultured in the absence or presence of lead compound #5 (L5) (A) or #6 (L6) (B) for 6 days prior to quantification of cell growth by MTT assays. Data represent mean±SD of triplicate samples. Balb/c mice were treated with L5 (˜10 mg/kg body weight, s. c., daily, M-F/wk) for two weeks to assess its toxicity in vivo (C).
Spleens were harvested one hour post-treatment on day 4 and processed into splenocytes, which were used for assessing pLck levels by SDS-PAGE/Western blotting and for quantification of IFNγ+ cells by ELISPOT assays. Mice were also treated with L5 (˜10 mg/kg body weight, daily, s. c., n=2) to evaluate the toxicity of the compounds in vivo.

Data set [2] relates to B16 melanoma tumors. Put plainly: B16 melanoma tumor growth in athymic nude mice. It counts as in vivo, mouse. As to conditions: 3 mg/kg/day, oral.
Protocol: To assess L5 anti-tumor activity, C57BL/6J mice or athymic nude mice (˜8-week old, female, Taconic Farms, Germantown, N.Y.) were inoculated (s.c.) at the flanks with B16 melanoma cells (4×10^4 cells/site). Four days post-inoculation, the mice were treated with PBS (Control) or L5 (˜3 mg/kg body weight/daily, Monday-Friday/week, oral gavage). Tumor volume (n=5) was measured during the study period and calculated using the formula for a prolate spheroid. Student's t test was used for assessing the significance of tumor volume differences among differential treatment groups. Mouse viability (daily) and body weights (weekly) were also recorded during the study period. Major internal organs of the mice were inspected visually upon their termination at the end of the experiment.
In a further data set the test system is human peripheral blood. Put plainly: induction of IFNγ+ cells in human peripheral blood in vitro (ELISPOT). The data set is classed as cell-based. As to the method:
For induction of human primary IFNγ+ cells, heparinized peripheral blood samples were obtained by vein-puncture from healthy volunteers following an established protocol approved by the Institutional Review Board (IRB) of Cleveland Clinic. To mimic in vivo drug-exposure, human peripheral blood samples were directly treated with different agents without pre-separation of white blood cells from other blood components. Blood samples (0.1 ml/sample) were mixed with the agents, incubated at 37° C. for 4 hrs, diluted with 5 volumes of hypotonic solution (10 mM Tris, pH 7.4; 10 mM NaCl) to lyse RBC and centrifuged to pellet WBCs. The pellets were washed with hypotonic solution one time, re-suspended in RPMI 1640 medium (10% FCS) and used for ELISPOT assays (Human IFNγ ELISPOT Kit, R & D System) to quantify human IFNγα cells as outlined above.

Data set [3] relates to B16 melanoma tumors.
Protocol: Tumor volume (n=5) was measured during the study period and calculated using the formula for a prolate spheroid. Student's t test was used for assessing the significance of tumor volume differences among differential treatment groups. Mouse viability (daily) and body weights (weekly) were also recorded during the study period. Major internal organs of the mice were inspected visually upon their termination at the end of the experiment.
To assess anti-tumor activity, C57BL/6J mice (˜8-week old, female, Taconic Farms, Germantown, N.Y.) were inoculated (s. c.) at the flanks with B16 melanoma cells (4×10^4 cells/site). […] Tumor volume (n=5) was measured during the study period and calculated using the formula for a prolate spheroid. Student's t test was used for assessing the significance of tumor volume differences among differential treatment groups. Mouse viability (daily) and body weights (weekly) were also recorded during the study period. Major internal organs of the mice were inspected visually upon their termination at the end of the experiment.

For `O=C1C=CC(=O)C(c2cc(Cl)ccc2Cl)=C1` [L5], the “inhibition of phosphatase activity of recombinant SHP-1” value on recombinant SHP-1 was “completely or almost completely inhibited”. Besides, the “direct toxicity against B16 cells in culture” value in the data set on B16 melanoma cells is on record as “little direct toxicity”. Besides, the mouse viability result in data set [1] was “all alive”. Moreover, the “B16 tumor growth in T-cell-deficient mice” value in the data set with B16 melanoma tumors [2] is “not inhibited”. For the same compound, the “maximal induction of IFNγ+ cells in human peripheral blood” value in the data set with human peripheral blood (8 μg/ml) came to 20 fold. Further, the “effectiveness relative to SSG in inducing IFNγ+ cells” value in the data set on human peripheral blood (maximal induction at a comparable dose, human peripheral blood) is reported as ~20 fold. The “B16 tumor growth inhibition versus control” value with B16 melanoma tumors [3] (1 mg/kg/daily, M-F/wk, oral, day 22) is ~9%. The “growth inhibition of B16 tumors versus control” value with B16 melanoma tumors [3] (3 mg/kg/day, oral, M-F/week, end of study) is ~83%. The “tolerance of treated tumor mice (behavior, gross anatomy)” value in the data set with B16 melanoma tumors [3] (mouse, in vivo) is given as “no apparent abnormality”.
